# According to ChEMBL document CHEMBL4138316, “Optimization of Isothiazolo[4,3- b]pyridine-Based Inhibitors of Cyclin G Associated Kinase (GAK) with Broad-Spectrum Antiviral Activity” (J Med Chem, 2018):
# pEC50, pKd: −log10 of the molar value. Calls of active or inactive are those of the source. No cut-off for these calls is given here.
# Columns and labels:
# Huh-7 [1] = assay: Cytotoxicity against human HuH7 cells after 48 hrs by Alamar Blue assay; type: cell-based; settings: huh-7, 48 h
# dengue virus type 2 [2] = assay: Antiviral activity against DENV2 New Guinea C infected in human HuH7 cells after 48 hrs by luciferase reporter gene assay; type: functional, organism-based; settings: Huh-7, 48 h
# [3] = target: T1, Cyclin-G-associated kinase (Homo sapiens, UniProt O14976)
# T1 sequence (O14976 whole entry): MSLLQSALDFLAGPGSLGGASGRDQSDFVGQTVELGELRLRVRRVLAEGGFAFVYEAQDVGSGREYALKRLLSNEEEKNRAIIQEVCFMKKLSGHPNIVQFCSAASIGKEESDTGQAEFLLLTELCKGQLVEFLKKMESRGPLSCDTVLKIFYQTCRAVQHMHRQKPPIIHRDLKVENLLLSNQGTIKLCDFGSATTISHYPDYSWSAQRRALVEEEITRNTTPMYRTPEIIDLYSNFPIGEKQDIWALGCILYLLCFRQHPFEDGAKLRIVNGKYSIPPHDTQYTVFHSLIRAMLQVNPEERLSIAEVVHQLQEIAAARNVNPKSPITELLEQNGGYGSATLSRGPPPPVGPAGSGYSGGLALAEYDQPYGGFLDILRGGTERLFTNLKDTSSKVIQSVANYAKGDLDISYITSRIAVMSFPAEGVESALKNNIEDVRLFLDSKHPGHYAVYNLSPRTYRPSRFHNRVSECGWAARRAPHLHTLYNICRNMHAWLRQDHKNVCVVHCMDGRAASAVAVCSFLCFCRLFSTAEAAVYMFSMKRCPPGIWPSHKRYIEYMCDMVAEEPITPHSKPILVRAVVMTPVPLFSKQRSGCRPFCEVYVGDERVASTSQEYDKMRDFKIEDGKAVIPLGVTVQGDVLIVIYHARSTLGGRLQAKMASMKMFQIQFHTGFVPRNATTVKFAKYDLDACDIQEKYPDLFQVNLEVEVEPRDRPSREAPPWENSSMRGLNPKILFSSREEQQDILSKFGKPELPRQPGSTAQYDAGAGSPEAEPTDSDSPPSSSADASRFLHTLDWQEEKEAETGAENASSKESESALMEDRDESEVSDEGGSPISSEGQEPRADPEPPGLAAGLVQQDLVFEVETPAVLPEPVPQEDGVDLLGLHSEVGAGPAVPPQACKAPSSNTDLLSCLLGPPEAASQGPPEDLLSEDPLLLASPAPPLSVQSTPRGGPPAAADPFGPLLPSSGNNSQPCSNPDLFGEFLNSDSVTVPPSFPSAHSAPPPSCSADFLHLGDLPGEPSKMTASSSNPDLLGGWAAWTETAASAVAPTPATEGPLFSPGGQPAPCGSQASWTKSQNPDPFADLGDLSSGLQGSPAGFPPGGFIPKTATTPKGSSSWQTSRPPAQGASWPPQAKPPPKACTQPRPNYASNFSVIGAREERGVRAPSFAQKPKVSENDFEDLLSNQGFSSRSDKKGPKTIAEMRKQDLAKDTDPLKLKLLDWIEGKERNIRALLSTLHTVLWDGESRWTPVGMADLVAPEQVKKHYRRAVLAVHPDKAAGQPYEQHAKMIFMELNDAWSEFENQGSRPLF
# [4] = Apparent permeability cross basolateral to apical side in MDCK-MDR1 cells at 5 uM after 90 mins by LC-MS/MS analysis; type: ADME, cell-based, Canis lupus familiaris; settings: dog, mdck-mdr1, 1.5 h
# [5] = Apparent permeability cross apical to basolateral side in MDCK-MDR1 cells at 5 uM after 90 mins by LC-MS/MS analysis; type: ADME, cell-based, Canis lupus familiaris; settings: dog, mdck-mdr1, 1.5 h
# [6] = Aqueous solubility in PBS buffer at pH 7.4 at 100 uM after 1 hr by LC-MS/MS analysis; type: physicochemical; settings: pH 7.4, 1 h
# Ebolavirus = assay: Antiviral activity against Ebolavirus infected in human HuH7 cells after 48 hrs by immunofluorescence assay; type: functional, cell-based; settings: for EC90: Orthoebolavirus, Huh-7, 48 h
# Huh-7 [7] = assay: Cytotoxicity against human HuH7 cells after 48 hrs by CellTiter-Glo assay; type: cell-based; settings: huh-7, 48 h
# Dengue virus = assay: Antiviral activity against Dengue virus infected in doxycycline-inducible GAK (unkown origin) transfected TREx293 cells up to 20 uM after 72 hrs by luciferase reporter gene assay; type: functional, organism-based
# dengue virus type 2 [8] = assay: Antiviral activity against DENV2 16881 infected in human MDDC after 72 hrs by plaque assay; type: functional, organism-based; settings: Dengue virus, 16881, 72 h
# [9] = Cytotoxicity against human MDDC cells after 72 hrs by Alamar Blue assay; type: cell-based
# Chikungunya virus = assay: Antiviral activity against Chikungunya virus AF15561 infected in African green monkey Vero cells preincubated for 48 hrs followed by viral infection measured after 48 hrs by plaque assay; type: functional, organism-based
# [10] = target: Tyrosine-protein kinase ABL1 (Homo sapiens) (UniProt P00519); assay: Inhibition of wild-type human non-phosphorylated ABL1 (S229 to K512 residues) expressed in mammalian expression system at 10 uM by ATP-site competition binding assay based KinomeScan assay relative to control
# [11] = target: T2, Aurora kinase C (Homo sapiens) (UniProt Q9UQB9); assay: Inhibition of wild-type human full length AURKC (M1 to S275 residues) expressed in bacterial expression system at 10 uM by ATP-site competition binding assay based KinomeScan assay relative to control
# T2 sequence (whole entry): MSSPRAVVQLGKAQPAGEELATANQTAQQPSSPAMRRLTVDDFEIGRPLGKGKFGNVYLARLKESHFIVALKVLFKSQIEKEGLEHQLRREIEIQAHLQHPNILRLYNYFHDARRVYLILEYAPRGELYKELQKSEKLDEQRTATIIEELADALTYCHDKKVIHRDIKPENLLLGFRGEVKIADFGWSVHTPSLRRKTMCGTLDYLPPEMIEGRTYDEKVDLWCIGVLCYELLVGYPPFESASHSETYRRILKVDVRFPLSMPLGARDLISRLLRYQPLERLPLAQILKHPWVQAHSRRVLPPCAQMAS
# [12] = target: Ephrin type-A receptor 7 (Homo sapiens) (UniProt Q15375); assay: Inhibition of wild-type human partial length EPHA7 (Y608 to S912 residues) expressed in bacterial expression system at 10 uM by ATP-site competition binding assay based KinomeScan assay relative to control
# Sequence of Ephrin type-A receptor 7 (Homo sapiens) (Q15375 28-998 limits assumed): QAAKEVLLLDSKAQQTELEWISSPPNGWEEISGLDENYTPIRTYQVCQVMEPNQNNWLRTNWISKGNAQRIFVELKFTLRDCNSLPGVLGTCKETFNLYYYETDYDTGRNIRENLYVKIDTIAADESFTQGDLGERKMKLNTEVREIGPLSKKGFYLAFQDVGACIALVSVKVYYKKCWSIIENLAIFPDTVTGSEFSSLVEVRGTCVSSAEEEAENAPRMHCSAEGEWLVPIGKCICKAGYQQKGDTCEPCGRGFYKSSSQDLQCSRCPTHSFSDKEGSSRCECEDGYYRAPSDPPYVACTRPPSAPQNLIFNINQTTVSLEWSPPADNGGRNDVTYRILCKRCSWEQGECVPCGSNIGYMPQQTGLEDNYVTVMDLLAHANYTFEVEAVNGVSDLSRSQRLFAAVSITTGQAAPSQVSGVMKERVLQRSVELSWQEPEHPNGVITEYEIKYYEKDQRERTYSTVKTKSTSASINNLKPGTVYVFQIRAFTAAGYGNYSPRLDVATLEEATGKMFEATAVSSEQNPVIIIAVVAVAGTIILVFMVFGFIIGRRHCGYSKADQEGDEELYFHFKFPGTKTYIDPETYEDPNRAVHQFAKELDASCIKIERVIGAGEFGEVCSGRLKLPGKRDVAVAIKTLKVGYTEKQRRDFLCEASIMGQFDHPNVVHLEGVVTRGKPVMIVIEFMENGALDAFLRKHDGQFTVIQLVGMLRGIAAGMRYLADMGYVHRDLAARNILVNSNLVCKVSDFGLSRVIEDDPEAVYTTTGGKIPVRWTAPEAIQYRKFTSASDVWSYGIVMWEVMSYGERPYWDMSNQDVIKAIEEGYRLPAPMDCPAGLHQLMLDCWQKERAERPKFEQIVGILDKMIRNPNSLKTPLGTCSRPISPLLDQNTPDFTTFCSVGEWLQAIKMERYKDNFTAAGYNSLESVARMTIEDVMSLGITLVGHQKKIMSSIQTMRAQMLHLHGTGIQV
# [13] = target: Receptor-type tyrosine-protein kinase FLT3 (Homo sapiens) (UniProt P36888); assay: Inhibition of wild-type human partial length FLT3 (V592 to Y969 residues) expressed in bacterial expression system at 10 uM by ATP-site competition binding assay based KinomeScan assay relative to control
# Sequence of Receptor-type tyrosine-protein kinase FLT3 (Homo sapiens) (P36888 whole entry, the tested form may be a part): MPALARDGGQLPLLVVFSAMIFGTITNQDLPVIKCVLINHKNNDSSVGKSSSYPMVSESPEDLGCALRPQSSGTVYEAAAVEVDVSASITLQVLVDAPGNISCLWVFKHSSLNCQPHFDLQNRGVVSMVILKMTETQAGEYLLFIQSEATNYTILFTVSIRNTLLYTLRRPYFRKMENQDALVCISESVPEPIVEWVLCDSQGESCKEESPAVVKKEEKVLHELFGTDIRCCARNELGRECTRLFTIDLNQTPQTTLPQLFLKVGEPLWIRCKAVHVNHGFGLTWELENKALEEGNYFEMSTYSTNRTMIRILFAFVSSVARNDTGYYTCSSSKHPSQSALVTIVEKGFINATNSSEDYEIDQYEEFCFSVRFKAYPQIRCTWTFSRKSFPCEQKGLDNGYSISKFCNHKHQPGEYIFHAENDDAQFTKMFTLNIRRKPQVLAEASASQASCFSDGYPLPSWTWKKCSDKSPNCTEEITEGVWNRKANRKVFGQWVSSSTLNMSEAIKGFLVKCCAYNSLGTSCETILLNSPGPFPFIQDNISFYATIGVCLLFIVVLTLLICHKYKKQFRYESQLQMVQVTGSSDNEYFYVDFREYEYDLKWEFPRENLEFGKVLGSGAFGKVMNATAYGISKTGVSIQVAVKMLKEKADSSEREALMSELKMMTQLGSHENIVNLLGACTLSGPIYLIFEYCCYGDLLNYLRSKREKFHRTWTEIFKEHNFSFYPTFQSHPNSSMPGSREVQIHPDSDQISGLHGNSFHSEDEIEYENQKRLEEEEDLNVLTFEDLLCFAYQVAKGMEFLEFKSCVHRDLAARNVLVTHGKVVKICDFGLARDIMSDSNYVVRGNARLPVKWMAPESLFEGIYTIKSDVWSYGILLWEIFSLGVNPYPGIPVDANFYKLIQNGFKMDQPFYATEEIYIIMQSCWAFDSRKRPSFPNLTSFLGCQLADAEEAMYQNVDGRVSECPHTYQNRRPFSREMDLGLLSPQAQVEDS
# [14] = target: Mast/stem cell growth factor receptor Kit (Homo sapiens, UniProt P10721); assay: Inhibition of wild-type human partial length KIT (I571 to D952 residues) expressed in bacterial expression system at 10 uM by ATP-site competition binding assay based KinomeScan assay relative to control
# Sequence of Mast/stem cell growth factor receptor Kit (P10721 whole entry, the tested form may be a part): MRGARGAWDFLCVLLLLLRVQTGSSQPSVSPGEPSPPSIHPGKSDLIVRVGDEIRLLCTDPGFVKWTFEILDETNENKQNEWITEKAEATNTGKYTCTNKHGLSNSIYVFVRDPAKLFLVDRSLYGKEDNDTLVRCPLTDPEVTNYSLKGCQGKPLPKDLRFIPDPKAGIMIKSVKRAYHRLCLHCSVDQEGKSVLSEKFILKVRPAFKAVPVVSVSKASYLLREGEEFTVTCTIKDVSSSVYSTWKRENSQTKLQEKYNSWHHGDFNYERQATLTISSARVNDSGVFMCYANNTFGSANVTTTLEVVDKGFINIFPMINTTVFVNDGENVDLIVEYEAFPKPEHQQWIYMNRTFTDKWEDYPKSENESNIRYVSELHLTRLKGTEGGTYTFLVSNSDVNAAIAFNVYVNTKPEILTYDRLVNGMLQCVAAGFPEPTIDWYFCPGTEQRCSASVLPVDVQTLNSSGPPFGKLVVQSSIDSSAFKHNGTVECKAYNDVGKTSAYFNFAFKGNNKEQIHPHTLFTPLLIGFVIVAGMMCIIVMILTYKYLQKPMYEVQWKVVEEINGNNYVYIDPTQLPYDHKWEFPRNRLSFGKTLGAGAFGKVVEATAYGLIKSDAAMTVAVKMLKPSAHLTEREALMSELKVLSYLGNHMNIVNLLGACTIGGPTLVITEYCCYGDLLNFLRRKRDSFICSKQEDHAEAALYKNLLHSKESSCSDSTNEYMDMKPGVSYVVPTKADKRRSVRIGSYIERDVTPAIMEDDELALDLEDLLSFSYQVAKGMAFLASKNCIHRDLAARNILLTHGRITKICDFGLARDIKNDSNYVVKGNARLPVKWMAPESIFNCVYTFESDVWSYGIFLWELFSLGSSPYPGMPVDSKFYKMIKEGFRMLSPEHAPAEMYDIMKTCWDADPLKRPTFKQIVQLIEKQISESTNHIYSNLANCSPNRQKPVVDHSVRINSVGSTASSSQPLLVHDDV
# [15] = target: T3, Dual specificity mitogen-activated protein kinase kinase 5 (Homo sapiens) (UniProt Q13163); assay: Inhibition of wild-type human partial length MAP2K5 (L98 to P448 residues) expressed in mammalian expression system at 10 uM by ATP-site competition binding assay based KinomeScan assay relative to control
# T3 sequence (whole entry): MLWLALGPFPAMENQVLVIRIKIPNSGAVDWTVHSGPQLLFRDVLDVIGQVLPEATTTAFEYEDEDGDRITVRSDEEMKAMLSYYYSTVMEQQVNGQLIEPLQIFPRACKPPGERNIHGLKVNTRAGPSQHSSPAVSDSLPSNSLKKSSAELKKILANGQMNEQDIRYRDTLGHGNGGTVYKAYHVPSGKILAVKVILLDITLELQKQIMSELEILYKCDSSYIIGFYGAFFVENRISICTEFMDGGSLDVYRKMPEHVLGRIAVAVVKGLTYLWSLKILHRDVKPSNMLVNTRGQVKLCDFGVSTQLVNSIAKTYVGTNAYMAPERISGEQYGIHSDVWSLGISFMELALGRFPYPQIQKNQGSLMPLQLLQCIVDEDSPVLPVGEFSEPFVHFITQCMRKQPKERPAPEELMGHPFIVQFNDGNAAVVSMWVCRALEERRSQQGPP
# [16] = target: Mitogen-activated protein kinase 14 (Homo sapiens) (UniProt Q16539); assay: Inhibition of wild-type human full length MAPK14 (M1 to S360 residues) expressed in bacterial expression system at 10 uM by ATP-site competition binding assay based KinomeScan assay relative to control
# Sequence of Mitogen-activated protein kinase 14 (Homo sapiens) (Q16539 whole entry, the tested form may be a part): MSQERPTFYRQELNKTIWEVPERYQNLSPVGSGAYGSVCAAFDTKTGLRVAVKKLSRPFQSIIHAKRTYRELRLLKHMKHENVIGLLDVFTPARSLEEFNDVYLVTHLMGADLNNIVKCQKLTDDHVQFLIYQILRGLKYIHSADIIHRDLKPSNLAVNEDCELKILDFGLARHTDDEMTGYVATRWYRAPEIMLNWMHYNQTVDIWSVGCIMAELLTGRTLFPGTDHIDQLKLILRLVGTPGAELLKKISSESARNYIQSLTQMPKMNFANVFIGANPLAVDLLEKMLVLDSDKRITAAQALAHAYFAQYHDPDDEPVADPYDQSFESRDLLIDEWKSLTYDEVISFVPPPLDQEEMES
# [17] = target: Platelet-derived growth factor receptor beta (Homo sapiens) (UniProt P09619); assay: Inhibition of wild-type human partial length PDGFRB (V582 to Y1009 residues) expressed in bacterial expression system at 10 uM by ATP-site competition binding assay based KinomeScan assay relative to control
# Sequence of Platelet-derived growth factor receptor beta (Homo sapiens) (P09619 whole entry, the tested form may be a part): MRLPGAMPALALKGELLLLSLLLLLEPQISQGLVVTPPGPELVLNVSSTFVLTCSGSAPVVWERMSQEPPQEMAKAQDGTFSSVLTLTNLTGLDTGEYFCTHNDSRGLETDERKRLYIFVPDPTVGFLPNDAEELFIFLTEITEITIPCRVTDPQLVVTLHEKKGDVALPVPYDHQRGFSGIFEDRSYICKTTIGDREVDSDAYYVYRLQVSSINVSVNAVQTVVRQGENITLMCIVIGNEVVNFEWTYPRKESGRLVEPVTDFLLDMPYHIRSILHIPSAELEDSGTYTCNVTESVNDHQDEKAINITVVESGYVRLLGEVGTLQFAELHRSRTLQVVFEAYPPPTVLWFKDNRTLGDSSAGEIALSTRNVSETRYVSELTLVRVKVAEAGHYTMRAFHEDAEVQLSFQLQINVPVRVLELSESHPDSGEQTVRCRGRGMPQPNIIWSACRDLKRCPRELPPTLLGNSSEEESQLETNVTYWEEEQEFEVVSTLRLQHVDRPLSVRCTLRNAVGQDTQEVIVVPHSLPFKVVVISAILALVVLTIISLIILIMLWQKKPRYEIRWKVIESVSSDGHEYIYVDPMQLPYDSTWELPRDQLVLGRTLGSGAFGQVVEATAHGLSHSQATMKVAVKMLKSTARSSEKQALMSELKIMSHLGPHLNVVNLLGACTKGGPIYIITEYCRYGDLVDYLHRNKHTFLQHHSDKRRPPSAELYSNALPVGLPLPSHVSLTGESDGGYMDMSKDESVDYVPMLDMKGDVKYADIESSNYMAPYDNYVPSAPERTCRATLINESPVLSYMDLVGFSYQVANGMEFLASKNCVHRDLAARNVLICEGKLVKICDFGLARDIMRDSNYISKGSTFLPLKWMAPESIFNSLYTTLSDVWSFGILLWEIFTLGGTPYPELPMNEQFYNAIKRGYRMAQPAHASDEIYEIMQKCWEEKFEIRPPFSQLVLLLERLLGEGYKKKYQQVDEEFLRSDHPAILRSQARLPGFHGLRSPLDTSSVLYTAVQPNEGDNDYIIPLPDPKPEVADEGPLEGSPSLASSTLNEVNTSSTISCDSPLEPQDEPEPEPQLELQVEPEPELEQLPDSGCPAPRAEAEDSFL
smiles,measurement,setting,value
COc1cc(-c2cnc3c(N4CCOC[C@@H]4C)snc3c2)ccc1N,CC50,Huh-7 [1],6.32 µM
COc1cc(-c2cnc3c(N4CCCCC4)snc3c2)ccc1N,CC50,Huh-7 [1],> 10 µM
COc1cc(-c2cnc3c(N4CC5(COC5)C4)snc3c2)ccc1N,pEC50,dengue virus type 2 [2],5.15
same,EC90,dengue virus type 2 [2],> 10 µM
same,CC50,Huh-7 [1],> 10 µM
same,pKd,[3],6.77
COc1cc(-c2cnc3c(N4CCC(N)CC4)snc3c2)ccc1N,CC50,Huh-7 [1],> 10 µM
COc1cc(-c2cnc3c(N4CCC(F)(F)CC4)snc3c2)ccc1N,CC50,Huh-7 [1],> 10 µM
COCCc1ccc(OCC(O)CNC(C)C)cc1 (stereo not drawn) [METOPROLOL],Papp,[4],30.66 ×10⁻⁶ cm/s
same,Papp,[5],39.29 ×10⁻⁶ cm/s
COc1cc(-c2cnc3c(N4CCNC(=O)C4)snc3c2)ccc1N,Papp,[4],43.48 ×10⁻⁶ cm/s
same,Papp,[5],30.32 ×10⁻⁶ cm/s
same,CC50,Huh-7 [1],> 10 µM
same,solubility,[6],51.3 µM
COc1cc(-c2cnc3c(N4CCOC(C)(C)C4)snc3c2)ccc1N,CC50,Huh-7 [1],4.14 µM
COc1cc(-c2cnc3c(N4CCO[C@@H](C)C4)snc3c2)ccc1N,CC50,Huh-7 [1],> 25 µM
same,Activity,Ebolavirus,Dose-dependent effect
COc1cc(-c2cnc3c(N4CCC(C(N)=O)CC4)snc3c2)ccc1N,CC50,Huh-7 [1],> 10 µM
CC(C)NCC(O)COc1cccc2ccccc12 (stereo not drawn) [PROPRANOLOL],solubility,[6],117 µM
COc1cc(-c2cnc3c(N4CCOC[C@H]4C)snc3c2)ccc1N,CC50,Huh-7 [1],> 10 µM
COc1cc(-c2cnc3c(N4CC5CCC(C4)O5)snc3c2)ccc1N,CC50,Huh-7 [1],> 10 µM
COc1cc(-c2cnc3c(N4CCO[C@H](C)C4)snc3c2)ccc1N,CC50,Huh-7 [1],20.7 µM
same,Activity,Ebolavirus,Dose-dependent effect
same,CC50,Huh-7 [7],> 10 µM
COc1cc(-c2cnc3c(N4CCC(C#N)CC4)snc3c2)ccc1N,CC50,Huh-7 [1],2.09 µM
COc1cc(-c2cnc3c(N4CCOC(C)C4)snc3c2)ccc1N (racemic),CC50,Huh-7 [1],21.5 µM
same,Activity,Ebolavirus,Dose-dependent effect
same,CC50,Huh-7 [7],9.4 µM
COc1cc(-c2cnc3c(N4C[C@@H](C)O[C@H](C)C4)snc3c2)ccc1N (relative stereo),pEC50,dengue virus type 2 [2],6.15
same,EC90,dengue virus type 2 [2],2.15 µM
same,CC50,Huh-7 [1],> 10 µM
COc1cc(-c2cnc3c(N4CCS(=O)(=O)CC4)snc3c2)ccc1N,CC50,Huh-7 [1],> 10 µM
COc1cc(-c2cnc3c(NC4CCOCC4)snc3c2)ccc1N,CC50,Huh-7 [1],> 20 µM
COc1cc(-c2cnc3c(N4C[C@@H](C)O[C@@H](C)C4)snc3c2)ccc1N,Papp,[4],18.28 ×10⁻⁶ cm/s
same,Papp,[5],31.33 ×10⁻⁶ cm/s
same,Activity,Dengue virus,inactive
same,pEC50,dengue virus type 2 [2],6.09
same,EC90,dengue virus type 2 [2],1.76 µM
same,CC50,Huh-7 [1],> 25 µM
same,pEC50,dengue virus type 2 [8],5.45
same,CC50,[9],> 20 µM
same,EC90,Ebolavirus,7.73 µM
same,CC50,Huh-7 [7],> 10 µM
same,Activity,Chikungunya virus,Dose-dependent effect
same,inhibition,[10],> 90%
same,inhibition,[11],> 90%
same,inhibition,[12],> 90%
same,inhibition,[13],> 90%
same,inhibition,[14],> 90%
same,inhibition,[15],> 90%
same,inhibition,[16],> 90%
same,inhibition,[17],> 90%
same,solubility,[6],0.52 µM
same,pKd,[3],7.05
COc1cc(-c2cnc3c(N4CCCC(C(N)=O)C4)snc3c2)ccc1N (stereo not drawn),CC50,Huh-7 [1],> 10 µM
COc1cc(-c2cnc3c(N4CCCOCC4)snc3c2)ccc1N,CC50,Huh-7 [1],> 10 µM
COc1cc(-c2cnc3c(N4CCOCC4)snc3c2)ccc1N,Papp,[4],30.8 ×10⁻⁶ cm/s
same,Papp,[5],45.45 ×10⁻⁶ cm/s
same,pEC50,dengue virus type 2 [2],5.73
same,EC90,dengue virus type 2 [2],8.05 µM
same,EC90,Ebolavirus,21.9 µM
same,CC50,Huh-7 [7],11 µM
same,solubility,[6],3.44 µM
